Data from PMC9267852, “Hepatic Expression of the Na^+-Taurocholate Cotransporting Polypeptide Is Independent from Genetic Variation” (International Journal of Molecular Sciences, 2022).
Residue numbers refer to the chain shown, from its start.

How the values were obtained:
Assay type in all cases: cell-based
[1] = target: T1, Na+-taurocholate cotransporting polypeptide (NTCP) (Homo sapiens, UniProt Q14973, S213R); experiment: inhibition of [3H]taurocholate uptake in NTCP-S213R-expressing HEK cells; sodium-dependent remdesivir uptake Km […]
T1 construct: gene SLC10A1; NTCP-p.S213R, stably expressed in HEK cells
T1 sequence (Q14973 1-349 S213R): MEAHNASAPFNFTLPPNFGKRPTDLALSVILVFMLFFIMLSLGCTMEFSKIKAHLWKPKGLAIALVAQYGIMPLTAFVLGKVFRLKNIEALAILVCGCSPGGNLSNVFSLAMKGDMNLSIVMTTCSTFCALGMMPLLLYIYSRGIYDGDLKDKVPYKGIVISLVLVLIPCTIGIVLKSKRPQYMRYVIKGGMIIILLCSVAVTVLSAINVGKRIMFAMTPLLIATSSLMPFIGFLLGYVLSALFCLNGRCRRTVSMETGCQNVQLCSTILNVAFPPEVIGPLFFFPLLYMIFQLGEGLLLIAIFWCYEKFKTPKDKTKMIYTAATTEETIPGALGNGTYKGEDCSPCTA

[2] = target: T2, Na+-taurocholate cotransporting polypeptide (NTCP) (Homo sapiens, UniProt Q14973); experiment: inhibition of [3H]taurocholate uptake in NTCP-expressing HEK cells; remdesivir also taken up sodium-dependently (Km […])
T2 construct: gene SLC10A1
T2 sequence (Q14973 1-349): T1 sequence (Q14973 1-349 S213R) with R213S

[3] = target: T3, Na+-taurocholate cotransporting polypeptide (NTCP) (Homo sapiens, UniProt Q14973, R185C); experiment: inhibition of [3H]taurocholate uptake in NTCP-R185C-expressing HEK cells; sodium-dependent remdesivir uptake Km […]
T3 construct: gene SLC10A1; NTCP-p.R185C, stably expressed in HEK cells
T3 sequence (Q14973 1-349 R185C): T1 sequence (Q14973 1-349 S213R) with R185C, R213S

- IC50 [1]: 63.1 µM
- IC50 [2]: 90.3 µM
- IC50 [3]: 65 µM
Compound: CCC(CC)COC(=O)[C@H](C)N[P@](=O)(OC[C@H]1O[C@@](C#N)(c2ccc3c(N)ncnn23)[C@H](O)[C@@H]1O)Oc1ccccc1 [remdesivir]
